Biological target: T1, h-TRAAK (Homo sapiens, UniProt Q9NYG8)
T1 construct: expressed in transfected cells; host or cells: HEK 293
T1 sequence (Q9NYG8 1-393): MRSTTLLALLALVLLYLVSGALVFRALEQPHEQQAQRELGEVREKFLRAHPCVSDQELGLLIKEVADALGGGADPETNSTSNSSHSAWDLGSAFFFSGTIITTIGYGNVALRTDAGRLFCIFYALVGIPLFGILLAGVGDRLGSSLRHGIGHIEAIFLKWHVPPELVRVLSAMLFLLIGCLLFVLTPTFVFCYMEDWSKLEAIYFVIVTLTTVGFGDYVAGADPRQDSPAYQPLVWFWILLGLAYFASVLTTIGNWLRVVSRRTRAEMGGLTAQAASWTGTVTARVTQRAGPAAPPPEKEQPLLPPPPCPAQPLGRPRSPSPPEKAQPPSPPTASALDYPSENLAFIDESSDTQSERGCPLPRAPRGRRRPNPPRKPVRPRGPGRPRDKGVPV
Test: Whole cell patch clamp recordings in HEK 293 cells transiently transfected with h-TRAAK
Type: cell-based
Source text: Electrophysiological Recordings in HEK293 Cells
For whole cell patch clamp recordings cells were placed on the stage of an inverted microscope and continuously superfused with a solution containing, in mM: NaCl 150, KCl 5, HEPES 10, CaCl2 1 and MgCl2 3; pH with NaOH. The patch pipette solution contained in mM: KCl 150, HEPES 10, MgCl2 3 and EGTA 5; pH7.2 with KOH. When cells were voltage clamped at a test potential of −80 mV depolarising pulses elicited rapidly activating, non-inactivating outward currents. At a test potential of +10 mV these currents were considerably greater in amplitude, 300.4 pA±92.9 (n=5) than those recorded from untransfected wild type HEK 293 cells, 94.8 pA +12.6 (n=15). h-TRAAK-mediated currents were potentiated by arachidonic acid over a voltage range from −140 to +60 mV.

fold increase in h-TRAAK-mediated current (10 μM arachidonic acid, test potential of +10 mV): 7.9 ±3.0 fold
effect on h-TRAAK-mediated currents (voltage range from −140 to +60 mV): potentiated
SMILES: CCCCC/C=C\C/C=C\C/C=C\C/C=C\CCCC(=O)O [arachidonic acid]

— patent US6426197B1, “Polynucleotides encoding a human potassium channel” (SmithKline Beecham, P.L.C., priority 1998, dated 2002)
